# According to ChEMBL document CHEMBL1201861, “Genomics of Drug Sensitity in Cancer screening data, Wellcome Trust Sanger Institute”:
# pIC50: −log10 of the molar value.
# Assays:
# BC1 cell line = test: SANGER: Inhibition of human BC-1 cell growth in a cell viability assay.; type: functional, cell-based; settings: Homo sapiens, BC1
# L-540 = test: cells; type: functional, cell-based, Homo sapiens; settings: Homo sapiens, L-540;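 further: growth inhibition of the human L-540 cell line, read out with a viability assay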
# Description: SANGER: Inhibition of human L-540 cell growth in a cell viability assay.
# SK-MES-1 = test: cells; type: functional, cell-based; settings: Homo sapiens;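 further: growth inhibition of human SK-MES-1 cells, read out with a cell viability assay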
# Description: SANGER: Inhibition of human SK-MES-1 cell growth in a cell viability assay.
# ABC-1 = test: cells; type: functional, cell-based; settings: Homo sapiens;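 further: growth inhibition of human ABC-1 cells, read out by a cell viability assay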
# Description: SANGER: Inhibition of human ABC-1 cell growth in a cell viability assay.
# TE-441-T = test: cells; type: functional, cell-based, Homo sapiens; settings: Homo sapiens, TE-441-T
# Description: SANGER: Inhibition of human TE-441-T cell growth in a cell viability assay.
# IGR-1 = test: cells; type: functional, cell-based; settings: Homo sapiens;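 further: growth inhibition of human IGR-1 cells, read out with a cell viability assay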
# Description: SANGER: Inhibition of human IGR-1 cell growth in a cell viability assay.
# MHH-CALL-2 = test: cells; type: functional, cell-based, Homo sapiens; settings: Homo sapiens, MHH-CALL-2;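 further: growth inhibition of the cell line, read out in a cell viability assay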
# Description: SANGER: Inhibition of human MHH-CALL-2 cell growth in a cell viability assay.
# CHL-1 = test: cells; type: functional, cell-based; settings: Homo sapiens;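 further: cell growth inhibition, read out with a cell viability assay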
# Description: SANGER: Inhibition of human CHL-1 cell growth in a cell viability assay.
# MKN-1 = test: cells; type: functional, cell-based; settings: Homo sapiens;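 further: growth inhibition of human MKN1 cells, read out by a cell viability measurement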
# Description: SANGER: Inhibition of human MKN1 cell growth in a cell viability assay.
# CaR-1 = test: cells; type: functional, cell-based; settings: Homo sapiens;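 further: growth inhibition of human CaR-1 cancer cells, read out with a cell viability assay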
# Description: SANGER: Inhibition of human CaR-1 cell growth in a cell viability assay.
# 23132-87 = test: cells; type: functional, cell-based; settings: Homo sapiens
# Description: SANGER: Inhibition of human 23132-87 cell growth in a cell viability assay.
# KYSE-70 cell line = test: cells; type: functional, cell-based; settings: Homo sapiens;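 further: cell viability assay read-out, with IC50 expressing suppression of KYSE-70 cell growth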
# Description: SANGER: Inhibition of human KYSE-70 cell growth in a cell viability assay.
# CMK = test: cells; type: functional, cell-based, Homo sapiens; settings: Homo sapiens, CMK;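 further: growth inhibition of CMK cells, read out as cell viability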
# Description: SANGER: Inhibition of human CMK cell growth in a cell viability assay.
# SW837 = test: cells; type: functional, cell-based; settings: Homo sapiens;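 further: growth inhibition of SW837 cells, determined with a cell viability assay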
# Description: SANGER: Inhibition of human SW837 cell growth in a cell viability assay.
# HC-1 = test: cells; type: functional, cell-based, Homo sapiens; settings: Homo sapiens, HC-1;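 further: growth inhibition of HC-1 cells measured by a cell viability assay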
# Description: SANGER: Inhibition of human HC-1 cell growth in a cell viability assay.
# MC-CAR = test: cells; type: functional, cell-based, Homo sapiens; settings: Homo sapiens, MC-CAR;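 further: growth inhibition of the human MC-CAR cell line, read out by a cell viability assay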
# Description: SANGER: Inhibition of human MC-CAR cell growth in a cell viability assay.
# MEL-JUSO = test: cells; type: functional, cell-based; settings: Homo sapiens;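 further: growth inhibition of human MEL-JUSO cells, read out with a cell viability assay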
# Description: SANGER: Inhibition of human MEL-JUSO cell growth in a cell viability assay.
# HO-1-N-1 = test: cells; type: functional, cell-based; settings: Homo sapiens;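 further: growth inhibition of human HO-1-N-1 cells, read out with a cell viability assay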
# Description: SANGER: Inhibition of human HO-1-N-1 cell growth in a cell viability assay.
# LCLC-103H cell line = test: cells; type: functional, cell-based; settings: Homo sapiens
# Description: SANGER: Inhibition of human LCLC-103H cell growth in a cell viability assay.
# A-375 = test: cells; type: functional, cell-based; settings: Homo sapiens;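 further: growth inhibition of A375 cells, read out with a cell viability assay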
# Description: SANGER: Inhibition of human A375 cell growth in a cell viability assay.
# COLO-792 = test: cells; type: functional, cell-based; settings: Homo sapiens
# Description: SANGER: Inhibition of human COLO-792 cell growth in a cell viability assay.
# NCI-H889 = test: cells; type: functional, cell-based, Homo sapiens; settings: Homo sapiens, NCI-H889;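 further: cell growth inhibition of the cell line, read out with a viability assay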
# Description: SANGER: Inhibition of human NCI-H889 cell growth in a cell viability assay.
# EFO-21 = test: cells; type: functional, cell-based; settings: Homo sapiens;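 further: growth inhibition of EFO-21 cells measured with a viability assay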
# Description: SANGER: Inhibition of human EFO-21 cell growth in a cell viability assay.
# SK-HEP1 = test: cells; type: functional, cell-based, SK-HEP-1; settings: Homo sapiens;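 further: cell viability readout used to quantify reduction in proliferation of human SK-HEP-1 cells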
# Description: SANGER: Inhibition of human SK-HEP-1 cell growth in a cell viability assay.
# A 172 = test: cells; type: functional, cell-based; settings: Homo sapiens;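 further: growth inhibition of A172 cells, measured with a cell viability readout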
# Description: SANGER: Inhibition of human A172 cell growth in a cell viability assay.
# HCC1954 = test: cells; type: functional, cell-based; settings: Homo sapiens;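 further: growth inhibition of human HCC1954 cells, read out with a cell viability assay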
# Description: SANGER: Inhibition of human HCC1954 cell growth in a cell viability assay.
# G-401 = test: cells; type: functional, cell-based; settings: Homo sapiens
# Description: SANGER: Inhibition of human G-401 cell growth in a cell viability assay.
# U2OS = test: cells; type: functional, cell-based, U-2-OS; settings: Homo sapiens;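 further: growth inhibition of human U-2-OS cells, determined with a cell viability assay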
# Description: SANGER: Inhibition of human U-2-OS cell growth in a cell viability assay.
# MDA-MB-361 = test: cells; type: functional, cell-based; settings: Homo sapiens
# CHP-212 = test: cells; type: functional, cell-based; settings: Homo sapiens
# Description: SANGER: Inhibition of human CHP-212 cell growth in a cell viability assay.
# GCT = test: cells; type: functional, cell-based; settings: Homo sapiens;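 further: GCT cell line proliferation inhibition, read out with a cell viability assay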
# Description: SANGER: Inhibition of human GCT cell growth in a cell viability assay.
# SF-295 = test: cells; type: functional, cell-based; settings: Homo sapiens;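 further: growth inhibition of SF-295 cells, read out with a cell viability assay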
# Description: SANGER: Inhibition of human SF295 cell growth in a cell viability assay.
# PANC-03-27 = test: cells; type: functional, cell-based; settings: Homo sapiens
# Description: SANGER: Inhibition of human PANC-03-27 cell growth in a cell viability assay.
# HCT-15 = test: cells; type: functional, cell-based; settings: Homo sapiens;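 further: cell viability readout, IC50 reflecting suppression of HCT-15 cell growth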
# Description: SANGER: Inhibition of human HCT-15 cell growth in a cell viability assay.
# MRK-nu-1 = test: cells; type: functional, cell-based, Homo sapiens; settings: Homo sapiens, MRK-nu-1;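 further: cell viability assay measuring growth suppression of human MRK-nu-1 cells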
# Description: SANGER: Inhibition of human MRK-nu-1 cell growth in a cell viability assay.
# YT = test: cells; type: functional, cell-based, Homo sapiens; settings: Homo sapiens, YT
# Description: SANGER: Inhibition of human YT cell growth in a cell viability assay.
# SJRH30 = test: cells; type: functional, cell-based; settings: Homo sapiens;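 further: growth inhibition of human SJRH30 cells, read out with a cell viability assay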
# Description: SANGER: Inhibition of human SJRH30 cell growth in a cell viability assay.
# KP-4 = test: cells; type: functional, cell-based; settings: Homo sapiens;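 further: human KP-4 cells, with growth inhibition read out through a cell viability assay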
# Description: SANGER: Inhibition of human KP-4 cell growth in a cell viability assay.
# CAL-51 = test: cells; type: functional, cell-based; settings: Homo sapiens;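 further: human CAL-51 cell line, growth inhibition read out via a cell viability assay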
# Description: SANGER: Inhibition of human CAL-51 cell growth in a cell viability assay.
# NCI-H1693 = test: cells; type: functional, cell-based; settings: Homo sapiens;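 further: growth inhibition of the human cell line, read out with a cell viability assay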
# Description: SANGER: Inhibition of human NCI-H1693 cell growth in a cell viability assay.
# MDA-MB-157 = test: cells; type: functional, cell-based; settings: Homo sapiens
# Description: SANGER: Inhibition of human MDA-MB-157 cell growth in a cell viability assay.
# NCI-H1417 = test: cells; type: functional, cell-based, Homo sapiens; settings: Homo sapiens, NCI-H1417;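 further: human NCI-H1417 cells, growth inhibition determined with a cell viability readout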
# Description: SANGER: Inhibition of human NCI-H1417 cell growth in a cell viability assay.
# HuP-T4 = test: cells; type: functional, cell-based; settings: Homo sapiens;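 further: cell viability assay measuring how much HuP-T4 cell growth is inhibited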
# Description: SANGER: Inhibition of human HuP-T4 cell growth in a cell viability assay.
# Daudi = test: cells; type: functional, cell-based, Homo sapiens; settings: Homo sapiens, Daudi;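 further: growth inhibition of Daudi cells, read out by a viability assay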
# Description: SANGER: Inhibition of human Daudi cell growth in a cell viability assay.
# RVH-421 = test: cells; type: functional, cell-based; settings: Homo sapiens
# Description: SANGER: Inhibition of human RVH-421 cell growth in a cell viability assay.
# SK-MEL3 = test: cells; type: functional, cell-based, SK-MEL-3; settings: Homo sapiens;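 further: growth inhibition of human SK-MEL-3 cells, read out with a cell viability assay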
# Description: SANGER: Inhibition of human SK-MEL-3 cell growth in a cell viability assay.
# SNU-449 = test: cells; type: functional, cell-based; settings: Homo sapiens
# Description: SANGER: Inhibition of human SNU-449 cell growth in a cell viability assay.
# 786-0 = test: cells; type: functional, cell-based; settings: Homo sapiens
# Description: SANGER: Inhibition of human 786-0 cell growth in a cell viability assay.
# NCI-H1694 = test: cells; type: functional, cell-based, Homo sapiens; settings: Homo sapiens, NCI-H1694;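 further: cell viability assay measuring inhibition of growth in human NCI-H1694 cells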
# Description: SANGER: Inhibition of human NCI-H1694 cell growth in a cell viability assay.
# RMG-I = test: cells; type: functional, cell-based; settings: Homo sapiens;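 further: growth inhibition of human RMG-I cells, read out with a cell viability assay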
# Description: SANGER: Inhibition of human RMG-I cell growth in a cell viability assay.
# THP-1 = test: cells; type: functional, cell-based, Homo sapiens; settings: Homo sapiens, THP-1;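 further: growth inhibition of THP-1 cells, read out via a cell viability assay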
# Description: SANGER: Inhibition of human THP-1 cell growth in a cell viability assay.
# NCI-H524 = test: cells; type: functional, cell-based, Homo sapiens; settings: Homo sapiens, NCI-H524;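 further: growth inhibition of human NCI-H524 cells, read out through a cell viability assay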
# Description: SANGER: Inhibition of human NCI-H524 cell growth in a cell viability assay.
# WSU-NHL = test: cells; type: functional, cell-based, Homo sapiens; settings: Homo sapiens, WSU-NHL;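 further: growth inhibition of human WSU-NHL cells, read out with a cell viability assay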
# Description: SANGER: Inhibition of human WSU-NHL cell growth in a cell viability assay.
# HuCCT-1 = test: cells; type: functional, cell-based, HuCCT1; settings: Homo sapiens;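 further: growth inhibition of HuCCT-1 cells, read out by a cell viability assay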
# Description: SANGER: Inhibition of human HuCCT1 cell growth in a cell viability assay.
# BEN = test: cells; type: functional, cell-based; settings: Homo sapiens;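 further: growth inhibition of the BEN cell line, read out with a cell viability assay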
# Description: SANGER: Inhibition of human BEN cell growth in a cell viability assay.
# OE19 = test: cells; type: functional, cell-based; settings: Homo sapiens;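 further: growth inhibition of OE19 cells, measured through a cell viability read-out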
# Description: SANGER: Inhibition of human OE19 cell growth in a cell viability assay.
# NCI-H1651 = test: cells; type: functional, cell-based; settings: Homo sapiens;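 further: Read-out is a cell viability assay, with IC50 expressing inhibition of NCI-H1651 cell growth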
# Description: SANGER: Inhibition of human NCI-H1651 cell growth in a cell viability assay.
# KYSE-520 cell line = test: cells; type: functional, cell-based; settings: Homo sapiens;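 further: growth inhibition of human KYSE-520 cells, read out with a viability assay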
# Description: SANGER: Inhibition of human KYSE-520 cell growth in a cell viability assay.
# SK-MEL-28 = test: cells; type: functional, cell-based; settings: Homo sapiens;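 further: growth inhibition of human SK-MEL-28 cells, read out with a cell viability assay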
# Description: SANGER: Inhibition of human SK-MEL-28 cell growth in a cell viability assay.
compound,measurement,setting,value
Cc1ccc(C(=O)Nc2ccc(CN3CCN(C)CC3)c(C(F)(F)F)c2)cc1C#Cc1cnc2cccnn12 [PONATINIB],pIC50,BC1 cell line,< 6.29
same,pIC50,L-540,< 6.29
same,pIC50,SK-MES-1,< 6.29
same,pIC50,ABC-1,< 6.29
same,pIC50,TE-441-T,< 6.29
same,pIC50,IGR-1,< 6.29
same,pIC50,MHH-CALL-2,< 6.29
same,pIC50,CHL-1,< 6.29
same,pIC50,MKN-1,< 6.29
same,pIC50,CaR-1,< 6.29
same,pIC50,23132-87,< 6.29
same,pIC50,KYSE-70 cell line,< 6.29
same,pIC50,CMK,< 6.29
same,pIC50,SW837,< 6.29
same,pIC50,HC-1,< 6.29
same,pIC50,MC-CAR,< 6.29
same,pIC50,MEL-JUSO,< 6.29
same,pIC50,HO-1-N-1,< 6.29
same,pIC50,LCLC-103H cell line,< 6.29
same,pIC50,A-375,< 6.29
same,pIC50,COLO-792,< 6.29
same,pIC50,NCI-H889,< 6.29
same,pIC50,EFO-21,6.52
same,pIC50,SK-HEP1,6.48
same,pIC50,A 172,6.53
same,pIC50,HCC1954,< 6.29
same,pIC50,G-401,< 6.29
same,pIC50,U2OS,< 6.29
same,pIC50,MDA-MB-361,< 6.29
same,pIC50,CHP-212,< 6.29
same,pIC50,GCT,< 6.29
same,pIC50,SF-295,< 6.29
same,pIC50,PANC-03-27,< 6.29
same,pIC50,HCT-15,< 6.29
same,pIC50,MRK-nu-1,< 6.29
same,pIC50,YT,6.57
same,pIC50,SJRH30,< 6.29
same,pIC50,KP-4,< 6.29
same,pIC50,CAL-51,< 6.29
same,pIC50,NCI-H1693,< 6.29
same,pIC50,MDA-MB-157,< 6.29
same,pIC50,NCI-H1417,< 6.29
same,pIC50,HuP-T4,< 6.29
same,pIC50,Daudi,7.60
same,pIC50,RVH-421,< 6.29
same,pIC50,SK-MEL3,< 6.29
same,pIC50,SNU-449,6.52
same,pIC50,786-0,6.58
same,pIC50,NCI-H1694,< 6.29
same,pIC50,RMG-I,< 6.29
same,pIC50,THP-1,< 6.29
same,pIC50,NCI-H524,< 6.29
same,pIC50,WSU-NHL,< 6.29
same,pIC50,HuCCT-1,< 6.29
same,pIC50,BEN,< 6.29
same,pIC50,OE19,< 6.29
same,pIC50,NCI-H1651,< 6.29
same,pIC50,KYSE-520 cell line,< 6.29
same,pIC50,SK-MEL-28,< 6.29
